Data on seven molecules can be found in PMC11241344, “TriplEP-CPP: Algorithm for Predicting the Properties of Peptide Sequences” (International Journal of Molecular Sciences, 2024).

Peptide text beside a SMILES is read from it.

The test system of assay [1] is human HaCaT keratinocyte cells. The format is cell-based. Particulars: MTT test, peptide C=0,1 mM (100 µM), 24 h incubation at 37 °C, 5% CO2, absorbance 570/690 nm, mean ± standard deviation (n = 5). The protocol: (§1) Since the peptides predicted as CPPs are intended to be used as safe intracellular delivery systems, it is necessary to evaluate the degree of their toxicity to mammalian cells. For this purpose, the compounds investigated were added to human HaCaT keratinocyte cells and McCoy mouse fibroblast cells at a final concentration of 100 μM.
(§2) One of the most important criteria in the search for new penetrating peptides is to ensure the safety of their further use and to assess potential problems and risks. […] Therefore, we incubated human HaCaT keratinocyte and McCoy mouse fibroblast cells with our synthesized compounds at a final concentration of 100 μM for 24 h at 37 °C. […] The use of a fluorescent tag makes it possible to observe the penetration of the peptides as well as their distribution and localization within the cells. For this purpose, the synthesized compounds were conjugated with the fluorescent tag NBD-F and incubated with cells at a final concentration of […] for 4 h at 37 °C.
(§3) McCoy mouse fibroblast cell line (ATCC® CRL-1696™) was grown in a CO2 incubator at 37 °C, 5% CO2 in DMEM medium supplemented with 10% FBS and gentamicin (10 mkg/mL). Human immortalized keratinocyte line HaCaT cells (ATCC® PCS-200-011™) were grown in CO2-incubator at 37 °C, 5% CO2 in RPMI medium supplemented with 10% FBS and gentamicin (10 mkg/mL).
(§4) The cytotoxicity of the peptides was assessed using the MTT-test (3-(4,5-dimethylthiazol-2-yl)2,5-diphenyltetrazolium bromide) according to a standard protocol. McCoy, HaCaT cells were seeded in 96-well plates to a density of 5 × 10^3 cells and 3 × 10^3 cells in each well and incubated at 37 °C, 5% CO2 for 24 h. After 24 h incubation, the cells were washed with Hanks’ balanced salt solution (HBSS). The test peptides were tested at a final concentration of 100 µM in five replicates. Fresh culture medium without added peptides was used as a negative control. […] After adding 100 µL of the test compound to the cells, the samples were incubated at 37 °C, 5% CO2 for 24 h. Next, 10 µL of MTT working solution was added to each well, followed by incubating the cells for 4 h and adding 100 µL of solubilizing buffer to dissolve the formazan crystals. The amount of MTT was measured spectrophotometrically at 570 nm and 690 nm using a Multiskan Ascent microplate photometer (ThermoScientific, Waltham, MA, USA).
(§5) Results were processed using Microsoft Office Excel. During the evaluation of cell viability in the first step, the difference between the values obtained at 570 nm and 690 nm was found for each group of measurements. Then, dose-dependent curves were plotted for each cell line. […] The next step was to recalculate the values as a percentage of the positive control and obtain the mean values and standard deviation for each peptide.
In general terms: Formazan colour is commonly taken as a measure of viable cells.

Assay [2] relates to McCoy mouse fibroblast cells. The format is cell-based. The note with it: MTT test, peptide C=0,1 mM (100 µM), 24 h incubation at 37 °C, 5% CO2, absorbance 570/690 nm, mean ± standard deviation (n = 5). The protocol:
as §1, §2, §3, §4, §5

As to `CC(C)[C@H](NC(=O)[C@@H](N)[C@@H](C)O)C(=O)N[C@@H](C)C(=O)N[C@@H](CC(N)=O)C(=O)N[C@@H](Cc1ccccc1)C(=O)N[C@@H](CCCCN)C(=O)N[C@H](C(=O)N[C@@H](CC(N)=O)C(=O)N[C@@H](CO)C(=O)N[C@@H](C)C(=O)N[C@@H](C)C(=O)N1CCC[C@H]1C(=O)N1CCC[C@H]1C(=O)N[C@@H](C)C(=O)N[C@@H](C)C(=O)N[C@@H](CCC(=O)O)C(=O)N1CCC[C@H]1C(=O)N1CCC[C@H]1C(=O)N[C@@H](CCCNC(=N)N)C(=O)O)[C@@H](C)O` [CpRE13] (H-TVANFKTNSAAPPAAEPPR-OH), the “Percentage of Viable Cells, HaCaT” value in assay [1] came to 90.6 ± 3.6%. Also, the “Percentage of Viable Cells, McCoy” value in assay [2] turned out to be 89.7 ± 3.3%.

Consider `CC[C@H](C)[C@H](NC(=O)CN)C(=O)NCC(=O)N[C@@H](C)C(=O)N[C@H](C(=O)N[C@@H](CC(C)C)C(=O)N[C@@H](CCCCN)C(=O)N[C@H](C(=O)N[C@@H](CC(C)C)C(=O)N[C@H](C(=O)N[C@H](C(=O)NCC(=O)N[C@@H](CC(C)C)C(=O)N1CCC[C@H]1C(=O)N[C@@H](C)C(=O)N[C@@H](CC(C)C)C(=O)N[C@H](C(=O)N[C@@H](CO)C(=O)N[C@@H](Cc1c[nH]c2ccccc12)C(=O)N[C@H](C(=O)N[C@@H](CCCCN)C(=O)N[C@@H](CCCNC(=N)N)C(=O)N[C@@H](CCCCN)C(=O)N[C@@H](CCCNC(=N)N)C(=O)N[C@@H](CCC(N)=O)C(=O)N[C@@H](CCC(N)=O)C(N)=O)[C@@H](C)CC)[C@@H](C)CC)[C@@H](C)O)[C@@H](C)O)C(C)C)C(C)C` [melittin, reference compound], for which, in assay [1], the “Percentage of Viable Cells, HaCaT” value turned out to be 0.1 ± 0.1%. Also, the “Percentage of Viable Cells, McCoy” value in assay [2] was 0.0%.

`CC[C@H](C)[C@H](NC(=O)[C@H](C)N)C(=O)N[C@@H](CCCNC(=N)N)C(=O)N[C@@H](CC(N)=O)C(=O)N[C@@H](CC(=O)O)C(=O)N[C@@H](CCC(=O)O)C(=O)N[C@@H](CCC(=O)O)C(=O)N[C@@H](CC(C)C)C(=O)N[C@@H](CC(N)=O)C(=O)N[C@@H](CCCCN)C(=O)O` [CpHM6] (H-AIRNDEELNK-OH): the “Percentage of Viable Cells, HaCaT” value in assay [1] was determined as 92.2 ± 2.9%. Further, the “Percentage of Viable Cells, McCoy” value in assay [2] was found to be 95.3 ± 3.4%.

`C[C@H](NC(=O)[C@H](C)NC(=O)[C@H](CCCCN)NC(=O)[C@@H](N)CO)C(=O)N[C@@H](CC(=O)O)C(=O)N[C@@H](CCC(=O)O)C(=O)N[C@@H](CO)C(=O)N[C@@H](CCC(=O)O)C(=O)N[C@@H](CCCNC(=N)N)C(=O)O` [CpHM5] (H-SKAADESER-OH): in assay [1], the “Percentage of Viable Cells, HaCaT” value is 93.8 ± 2.4%. In addition, in assay [2], the “Percentage of Viable Cells, McCoy” value stood at 96.3 ± 3.4%.

With `CSCC[C@H](NC(=O)[C@H](Cc1c[nH]cn1)NC(=O)[C@H](Cc1c[nH]c2ccccc12)NC(=O)[C@@H](NC(=O)[C@@H](N)CCCCN)[C@@H](C)O)C(=O)N[C@H](C(=O)N[C@@H](Cc1ccc(O)cc1)C(=O)N1CCC[C@H]1C(=O)NCC(=O)NCC(=O)N[C@@H](Cc1ccc(O)cc1)C(=O)N[C@@H](CC(=O)O)C(=O)N[C@@H](Cc1c[nH]cn1)C(=O)N[C@H](C(=O)N[C@@H](CCCNC(=N)N)C(=O)NCC(=O)O)[C@@H](C)O)C(C)C` [CpOH10] (H-KTWHMVYPGGYDHTRG-OH), the “Percentage of Viable Cells, HaCaT” value in assay [1] stood at 94.6 ± 3.3%. Moreover, the “Percentage of Viable Cells, McCoy” value in assay [2] worked out at 94.4 ± 3.1%.

Turning to `CC[C@H](C)[C@H](NC(=O)[C@H](CCC(N)=O)NC(=O)[C@H](Cc1c[nH]c2ccccc12)NC(=O)[C@H](CCC(N)=O)NC(=O)[C@H](Cc1ccc(O)cc1)NC(=O)[C@@H](N)CO)C(=O)N[C@@H](Cc1ccccc1)C(=O)N[C@@H](Cc1ccc(O)cc1)C(=O)N[C@@H](CCCNC(=N)N)C(=O)N[C@@H](CO)C(=O)N[C@@H](CC(C)C)C(=O)N[C@@H](CC(=O)O)C(=O)NCC(=O)N[C@@H](CO)C(=O)NCC(=O)N[C@@H](C)C(=O)N[C@@H](CCCCN)C(=O)N[C@@H](CCC(=O)O)C(=O)O` [CpRE12] (H-SYQWQIFYRSLDGSGAKE-OH), the “Percentage of Viable Cells, HaCaT” value in assay [1] turned out to be 84.4 ± 4.0%. Also, in assay [2], the “Percentage of Viable Cells, McCoy” value is listed as 87.6 ± 4.6%.

Regarding `CC(C)C[C@H](NC(=O)[C@H](CCC(N)=O)NC(=O)[C@H](Cc1c[nH]c2ccccc12)NC(=O)[C@H](Cc1c[nH]cn1)NC(=O)[C@H](CCCCN)NC(=O)[C@H](CCCCN)NC(=O)[C@H](CCC(N)=O)NC(=O)[C@H](CCCNC(=N)N)NC(=O)[C@H](Cc1ccc(O)cc1)NC(=O)[C@H](Cc1c[nH]cn1)NC(=O)[C@H](Cc1ccccc1)NC(=O)[C@H](Cc1ccc(O)cc1)NC(=O)[C@H](CCCNC(=N)N)NC(=O)[C@@H](N)CS)C(=O)O` [CpHI4] (H-CRYFHYRQKKHWQL-OH), the “Percentage of Viable Cells, HaCaT” value in assay [1] is recorded as 95.3 ± 3.5%. The “Percentage of Viable Cells, McCoy” value in assay [2] worked out at 95.5 ± 3.2%.
